# Reference: PubChem BioAssay (NCI)
#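 Results reflect a 48-hour exposure of cells in 96-well plates to compound at five concentrations. TGI: total growth inhibition.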
# Columns and labels:
# Test in all cases: NCI anticancer screen, dose series, 48 h
# MCF7 breast = tested on: MCF7 breast
# LOX IMVI melanoma = tested on: LOX IMVI melanoma
# HCC-2998 colon = tested on: HCC-2998 colon
# NCI-H522 lung = tested on: NCI-H522 lung
# K-562 leukemia = tested on: K-562 leukemia
# DU-145 prostate = tested on: DU-145 prostate
# SF-295 CNS = tested on: SF-295 CNS
# NCI-H226 lung = tested on: NCI-H226 lung
# OVCAR-8 ovarian = tested on: OVCAR-8 ovarian
# HL-60(TB) leukemia = tested on: HL-60(TB) leukemia
# SK-OV-3 ovarian = tested on: SK-OV-3 ovarian
# SNB-19 CNS = tested on: SNB-19 CNS
# TK-10 renal = tested on: TK-10 renal
# T-47D breast = tested on: T-47D breast
# SR leukemia = tested on: SR leukemia
# MOLT-4 leukemia = tested on: MOLT-4 leukemia
# 786-0 renal = tested on: 786-0 renal
# SK-MEL-2 melanoma = tested on: SK-MEL-2 melanoma
# OVCAR-5 ovarian = tested on: OVCAR-5 ovarian
Compound,TGI (MCF7 breast) [µM],TGI (LOX IMVI melanoma) [µM],TGI (HCC-2998 colon) [µM],TGI (NCI-H522 lung) [µM],TGI (K-562 leukemia) [µM],TGI (DU-145 prostate) [µM],TGI (SF-295 CNS) [µM],TGI (NCI-H226 lung) [µM],TGI (OVCAR-8 ovarian) [µM],TGI (HL-60(TB) leukemia) [µM],TGI (SK-OV-3 ovarian) [µM],TGI (SNB-19 CNS) [µM],TGI (TK-10 renal) [µM],TGI (T-47D breast) [µM],TGI (SR leukemia) [µM],TGI (MOLT-4 leukemia) [µM],TGI (786-0 renal) [µM],TGI (SK-MEL-2 melanoma) [µM],TGI (OVCAR-5 ovarian) [µM]
NC(=O)c1cccc(N=c2oc3ccc(Br)cc3cc2-c2nc3ccccc3[nH]2)c1,31.9,37.5,34.9,77.4,96.1,28.9,30.8,24.2,28.2,51.3,32.7,28.5,30.7,29.2,> 100,43.4,31.4,38.5,30.2
Cn1c(=O)c2c(nc3sc4c(n32)C(=O)c2c(O)ccc(O)c2C4=O)n(C)c1=O,3.41,2.75,17.5,0.369,2.44,26.7,> 100,> 100,11,2.83,> 100,> 91.5,15.2,7.6,3.23,5.08,4.37,17.5,48.6
Cc1ccc(C(=O)Cn2c(C(=O)/C=C/c3cccs3)nc3ccccc32)cc1,> 100,> 100,43.7,–,> 100,> 100,–,> 100,–,> 100,> 100,> 100,> 100,> 100,50.4,–,> 100,48.3,> 100
O=C(O)c1cc2c(cc1CC(Cc1ccc3c(c1)CCCC3)C(=O)O)CCCC2 (stereo not drawn),> 100,> 100,> 100,> 100,> 100,> 100,> 100,> 100,> 100,> 100,> 100,> 100,> 100,> 100,> 100,> 100,> 100,> 100,> 100
N#Cc1cc([N+](=O)[O-])ccc1NC(=O)/C(=N\NC(=O)c1ccncc1)C(c1cnc2ccc([N+](=O)[O-])cc2n1)[N+](=O)[O-] (stereo not drawn),3.37,2.23,22.2,3.46,6.4,11.8,4,7.58,9.83,10.6,20,8.16,28.3,18.4,46.8,22.9,6.16,3.73,22.4
COC(=O)c1ccccc1NC(=NC1CCCCCC1)NS(=O)(=O)c1ccc(C)cc1,> 100,> 100,> 100,> 100,> 100,> 100,> 100,> 100,> 100,> 100,> 100,> 100,> 100,> 100,> 100,> 100,> 100,> 100,> 100
N#Cc1ccc(CSC2=C(c3ccc(Cl)cc3)S/C(=C3\SC(SCc4ccc(C#N)cc4)=C(c4ccc(Cl)cc4)S3)S2)cc1,> 100,> 100,> 100,> 100,> 100,> 100,> 100,> 100,> 100,> 100,> 100,> 100,> 100,> 100,> 100,> 100,> 100,> 100,> 100
Cc1cc(C)c(O)c(CN2CCN(C(C)C)CCN(C(C)C)CC2)c1,> 100,42.6,40.8,68,> 100,> 100,85.3,> 100,94.9,71,–,> 100,> 100,61,64,47.3,> 100,> 100,> 100
COc1ccc2nc3c([N+](=O)[O-])ccc(NCCCN(C)C)c3c(NCCCN(C)C)c2c1,2.33,3,2.61,–,5.89,> 10,3.01,–,2.9,8.81,4.14,–,5.52,> 10,1.14,1.26,2.13,–,–
Cc1ccc(-c2n[nH]c(=O)n2NC(=O)c2ccccc2C(=O)O)cc1,> 100,> 100,> 100,> 100,> 100,> 100,> 100,> 100,> 100,> 100,–,> 100,> 100,> 100,> 100,> 100,> 100,> 100,–
O[C@H]1[C@H](O)[C@@H](O)[C@@]2(O)CC[C@@H]1N2,> 100,> 100,> 100,> 100,> 100,> 100,> 100,> 100,> 100,–,> 100,> 100,> 100,> 100,> 100,> 100,> 100,> 100,> 100
CCOC(=O)c1cc2c3c(c(C(C)=O)c(O)c2[nH]1)N(C(C)=O)CC3,> 100,> 100,–,–,> 100,> 100,> 100,> 100,> 100,> 100,> 100,> 100,> 100,> 100,> 100,> 100,> 100,> 100,> 100
